Where two headings read alike, the source gives them in different places.
How the values were obtained:
[1] = Solubilities of biocidal active substances in different solvents at 25° C.; format: physicochemical
[2] = Storage stability (appearance of solution) in different solvents at −5° C., +20° C. and +50° C., 14 days' storage; format: physicochemical
[3] = cited from earlier work
[4] = in Polyethylene glycol 300, 25° C.
[5] = in Polyethylene glycol 400/glycerol 3:1, 25° C.
[6] = in TEGDME (tetraethylene glycol dimethyl ether), 25° C.
[7] = in Butyl polyglycol, 14 days' storage
[8] = in Diethylene glycol, 14 days' storage
[9] = in Dimethyl sulfoxide, 14 days' storage
[10] = in N-Methylpyrrolidone, 14 days' storage
[11] = in Polyethylene glycol 300, 14 days' storage
[12] = in dimethyl sulfoxide or N-methylpyrrolidone

| Compound | Solubility [25° C.] ([1]; in 2-Ethylhexanol, 25° C.) | Solubility [25° C.] ([1]; in Butyl diglycol, 25° C.) [%] | Solubility [25° C.] ([1]; in Butyl polyglycol, 25° C.) [%] | Solubility [25° C.] ([1]; in Diethylene glycol, 25° C.) [%] | Solubility [25° C.] ([1]; in Dimethyl sulfoxide, 25° C.) [%] | Solubility [25° C.] ([1]; in Dipropylene glycol, 25° C.) [%] | Solubility [25° C.] ([1]; in Glycerol, 25° C.) | Solubility [25° C.] ([1]; in N-Methylpyrrolidone, 25° C.) [%] | Solubility [25° C.] [1, 4] [%] | Solubility [25° C.] [1, 5] [%] | Solubility [25° C.] ([1]; in Polyglycol D 21/150, 25° C.) [%] | Solubility [25° C.] ([1]; in Polyglycol M 350, 25° C.) [%] | Solubility [25° C.] [1, 6] [%] | Storage stability at +20° C. [2, 7] | Storage stability at +50° C. [2, 7] | Storage stability at −5° C. [2, 7] | Storage stability at +20° C. [2, 8] | Storage stability at +50° C. [2, 8] | Storage stability at −5° C. [2, 8] | Storage stability at +20° C. [2, 9] | further results |
| --- | --- | --- | --- | --- | --- | --- | --- | --- | --- | --- | --- | --- | --- | --- | --- | --- | --- | --- | --- | --- | --- |
| N#CCCC(Br)(C#N)CBr (stereo not shown) [1,2-Dibromo-2,4-dicyanobutane, 1,2-dibromo-2,4-dicyanobutane] | insoluble | 30 | 40 | 20 | 45 | 10 | insoluble | 40 | 35 | 20 | 15 | 45 | 45 | clear, yellowish | clear, yellowish | clear, colorless | clear, colorless | clear, colorless | clear, colorless | brown solution | Storage stability at +50° C. [2, 9]: black solution; Storage stability at −5° C. [2, 9]: clear, yellowish; Storage stability at +20° C. [2, 10]: brown solution; Storage stability at +50° C. [2, 10]: black solution; Storage stability at −5° C. [2, 10]: clear, yellowish; Storage stability at +20° C. [2, 11]: clear, yellowish; Storage stability at +50° C. [2, 11]: clear, yellowish; Storage stability at −5° C. [2, 11]: clear, colorless; Chemical stability [3, 12]: chemically unstable; Solubility [3, 12]: readily soluble; Solubility ([3]; in solvents such as glycerol or 2-ethylhexanol): sparingly soluble |
| O=c1[nH]sc2ccccc12 [1,2-Benzisothiazolin-3-one, 1,2-benzisothiazolin-3-one] | insoluble | 7 | 10 | 7 | 30 | 5 | insoluble | 7 | 8 | 7 | 4 | 9 | 8 | clear solution | clear solution | clear solution | clear solution | clear solution | clear solution | clear solution | Storage stability at +50° C. [2, 9]: clear solution; Storage stability at −5° C. [2, 9]: clear solution; Storage stability at +20° C. [2, 10]: clear solution; Storage stability at +50° C. [2, 10]: clear solution; Storage stability at −5° C. [2, 10]: clear solution; Storage stability at +20° C. [2, 11]: clear solution; Storage stability at +50° C. [2, 11]: clear solution; Storage stability at −5° C. [2, 11]: clear solution; Active substance content at which solutions are stable ([3]; propylene glycol/water or diethylene glycol/water mixture, U.S. Pat. No. 4,188,376, higher concentrated solutions liable to precipitation): below 5 % by weight; Solubility in water ([3]; water): sparingly soluble |
